pIC50: −log10 of the molar value. Like-named read-outs stand apart in the source and are kept apart here.
Columns and labels:
[1] = target: recombinant CpLDH protein (Cryptosporidium parvum, UniProt Q9GT92, F198L/K295E/R251K)
[2] = test system: HCT-8 cells; experiment: Compound cytotoxicity assay (WST-1 cell proliferation reagent)
Description: A colorimetric assay using the cell proliferation reagent WST-1 (Roche, USA) for the quantification of cell viability was performed. […] When the cells were confluent, the old medium was replaced with fresh medium with or without varying concentrations of chemical compound. After 24 h of culture, 10 μl of the cell proliferation reagent WST-1, (for quantification of cell viability) was added to each well, mixed and the plates incubated for 1 h at 37 C with 5% CO2 in the dark. […] Three independent assays were performed and the dose–response curves of the means of triplicate assays were generated using GraphPad PRISM software to derive the half maximal inhibitory concentration (IC50) of compounds in HCT-8 cells.

Row | SMILES | MEAN CpLDH INHIBITION (%) [1] | pIC50 [2] | also measured
1 | CC1=C(CCC(=O)O)c2cc3nc(cc4[nH]c(cc4C)cc4[nH]c(cc1n2)cc4C)C(C)=C3CCC(=O)O [NSC18298] | 53.86% | 4.09 | –
2 | O=C(O)[C@@H]1[C@H](C(=O)O)[C@]2(Cl)C(Cl)=C(Cl)[C@@]1(Cl)C2(Cl)Cl [NSC22225] | – | 4.01 | effect on catalytic activity of recombinant CpLDH (in words) [1]: significantly (P < 0.05) inhibited
3 | O=c1oc2cc(O)ccc2c2oc3cc(O)ccc3c12 [NSC22842] | 3.48% | 4.08 | –
4 | CC(=O)Nc1ccc(-c2nc3ccccc3s2)cc1 [NSC33006] | 13.74% | 4.06 | –
5 | O=S(=O)([O-])c1cc(N=Nc2cc(S(=O)(=O)[O-])c3ccccc3c2O)ccc1/C=C/c1ccc(N=Nc2cc(S(=O)(=O)[O-])c3ccccc3c2O)cc1S(=O)(=O)[O-].[Na+].[Na+].[Na+].[Na+] [NSC34931] | 43.74% | 4.15 | –
6 | O=S(=O)(O)c1cc(N=[N+]([O-])c2cc(S(=O)(=O)O)c3ccccc3c2)cc2ccccc12 [NSC37031] | – | 3.48 | effect on catalytic activity of recombinant CpLDH (in words) [1]: significantly (P < 0.05) inhibited
7 | [Cl][Cd][Cl] [NSC51148] | 64.58% | 4.40 | –
8 | N#CCCN(CCC#N)Cc1cc(O)c(CN(CCC#N)CCC#N)cc1O [NSC70925] | 68.17% | 3.85 | –
9 | Cc1cc2c(c3oc(C4(C)OC4C4OC4C)cc(=O)c13)C(=O)c1c(O)c(C3CC(C)(N(C)C)C(O)C(C)O3)cc(C3CC(N(C)C)C(O)C(C)O3)c1C2=O (centres unmarked) [NSC70929] | 13.50% | 3.74 | –
10 | Cc1ccc2c(sc(-c3ccc4c(c3)sc(-c3ccc(N(C)C)cc3)[n+]4C)[n+]2C)c1S(=O)(=O)[O-].[Cl-] [NSC71948] | 60.47% | 3.98 | –
11 | O=[N+]([O-])c1ccc2c(N=Nc3c(O)ccc4ccccc34)c(O)cc(S(=O)(=O)[O-])c2c1.[Na+] [NSC73413] | 54.98% | 3.66 | –
12 | Cc1cc(N(CCCl)CCCl)ccc1/C=N/NC(=O)Cc1cc(=O)oc2cc(O)ccc12 [NSC79688] | 40.15% | – | pIC50 ([2]; read-out: CYTOTOXICITY IC50, HCT-8 cells, 24 h): 3.84
13 | O=C(CC(=O)C(F)(F)F)c1csc2ccccc12 [NSC80396] | -8.51% | 4.04 | –
14 | CCOC(C)C(C=NNC(N)=S)=NNC(N)=S (centres unmarked) [NSC82116] | 10.05% | 3.93 | –
15 | O=[N+]([O-])c1cccc2c(N=Nc3ccc4ccccc4c3O)c(O)cc(S(=O)(=O)O)c12.[Na+] [NSC85561] | 73.45% | 3.99 | –
16 | CCOC(=O)Cc1c(C)c2cc(C(=O)c3ccccc3)c(O)cc2oc1=O [NSC115538] | 0.63% | 3.80 | –
17 | COc1ccc(/C=C/C(=O)Oc2cc(O)cc(O)c2)cc1 [NSC175296] | 0.00% | 3.81 | –
18 | O=C([CH-]C(=O)C(F)(F)F)c1ccccc1.O=C([CH-]C(=O)C(F)(F)F)c1ccccc1.O=C([CH-]C(=O)C(F)(F)F)c1ccccc1.O=C([CH-]C(=O)C(F)(F)F)c1ccccc1.[Eu+3].c1ccncc1 [NSC253995] | 25.71% | 4.08 | –
19 | CC(O)CCC(=O)c1ccoc1 (centres unmarked) [NSC349438] | 13.12% | 4.03 | –
20 | O=Cc1cc([N+](=O)[O-])no1 [NSC626433] | 48.62% | 3.58 | –
21 | O=S(=O)(O)c1cc(N=Nc2cc(S(=O)(=O)O)c3cccnc3c2O)ccc1/C=C/c1ccc(N=Nc2cc(S(=O)(=O)O)c3cccnc3c2O)cc1S(=O)(=O)O [NSC638352] | 43.74% | 3.93 | –
22 | O=C1/C(=C/c2ccccc2)CN(C(=O)/C=C/c2ccccc2)C/C1=C\c1ccccc1 [NSC638634] | 0.30% | 3.81 | –
23 | N#CC(c1ccccc1)N(CCCCCCN(C(=O)c1ccccc1)C(C#N)c1ccccc1)C(=O)c1ccccc1 (centres unmarked) [NSC681744] | -15.26% | – | –
24 | COc1ccc(-c2cc(-c3ccccc3)nc3c2CC(=O)Nc2ccccc2-3)cc1OC [NSC682769] | -0.10% | – | –

Row | SMILES | MEAN CpLDH INHIBITION (%) [1] | pIC50 [2] | also measured
25 | NC1N=C(c2ccc(Cl)cc2)C2=C(N1)c1ccccc1CC2 (centres unmarked) [NSC682864] | -37.11% | – | –
26 | COc1ccc2cc(CN3CCC(C4CCN(Cc5ccc6cc(OC)ccc6c5)CC4)CC3)ccc2c1.Cl [NSC683792] | -73.55% | – | –
27 | O=C1Cc2c(-c3ccccc3)cc(-c3cccc(Cl)c3)nc2-c2ccccc2N1 [NSC684480] | -22.58% | – | –
28 | CCOC(=O)NC(Nc1ccc(F)cc1)(C(=O)OCC)C(F)(F)F (centres unmarked) [NSC684845] | -7.56% | – | –
29 | COC(=O)C1=C(C(=O)OC)SC2(S1)C(C(=O)OC)=C(C(=O)OC)Sc1c2ssc1=O [NSC686349] | 31.74% | 3.55 | –
30 | CC(C)[Si]1(C(C)C)OCC2OC(n3cnc4c(N)ncnc43)C(N)C2O[Si](C(C)C)(C(C)C)O1 (centres unmarked) [NSC687330] | -17.98% | – | –
31 | COc1ccc(/C=C2\CCCc3ccccc3C2=O)cc1 [NSC687667] | -11.60% | – | –
32 | COc1cc(OC)c2c(C)cc(=O)oc2c1 [NSC688795] | -40.28% | – | –
33 | CCCCCC(/C=C/[C@@H]1CC(=O)C[C@H]1O[Si](C)(C)C(C)(C)C)OCOCCOC (some centres unmarked) [NSC689228] | -5.60% | – | –
34 | O=C(OCC12CC3CC(CC(C3)C1)C2)c1ccc(NCc2cc(O)ccc2O)cc1 [NSC689857] | -0.01% | – | –
35 | COc1ccc2nc3cc([N+](=O)[O-])ccc3c(NNc3ccccc3)c2c1 [NSC689872] | -7.48% | – | –
36 | O=[N+]([O-])c1cccc2nc3ccccc3c(NCCCNc3c4ccccc4nc4cccc([N+](=O)[O-])c34)c12 [NSC690634] | -61.23% | – | –
37 | CCOC(=O)c1ccc(-c2cc(C)no2)[nH]1 [NSC693053] | -6.53% | – | –
38 | CCCCCCCCCCCCCCCC[N+](C)(C)Cc1ccc(F)cc1.[Cl-] [NSC693172] | -0.60% | – | –
39 | C/C(=N\Nc1nc2ccccc2s1)c1ccncn1 [NSC693632] | 0.06% | – | –
40 | CON(C)C(=O)C1CCCO1 (centres unmarked) [NSC695218] | -28.71% | – | –
41 | CN(C)CC1CCC/C(=C\c2ccc(OC(=O)/C=C/c3ccccc3)cc2)C1=O.Cl (centres unmarked) [NSC697443] | -57.12% | – | –
42 | CC(=O)NC1C(OCc2ccccc2)OC(CO)C(O)C1OC(C)C(=O)NC(C(=O)NC(CCC(=O)NCCCCNc1c2ccccc2nc2cccc([N+](=O)[O-])c12)C(N)=O)C(C)C (centres unmarked) [NSC697468] | -5.22% | – | –
43 | CC1=C(N2CC2)C(=O)C(CO)=C(N2CC2)C1=O [NSC697726] | -69.94% | – | –
44 | Cc1ccc(S(=O)(=O)c2ccc([N+](=O)[O-])o2)cc1 [NSC697923] | – | – | MEAN CpLDH INHIBITION (%) ([1]; 20 μM compound, 10 mM pyruvate, 1 mM NADH, values below 0 = augmenters): -17.27%
45 | Cc1nnc(-n2c(O)cc(=O)n(-c3ccccc3)c2=S)nc1/C=C/c1ccc(N(C)C)cc1 [NSC698031] | -6.31% | – | –
46 | CCCCn1c2c(n(CCCC)c1=S)-c1c(n(CCCC)c(=S)n1CCCC)SSSS2 [NSC700582] | -83.75% | – | –
47 | Cc1ccc(N=N/C(=N\NC(=O)c2ccc(C)cc2)c2ccc(N(CCC#N)CCC#N)cc2C)cc1 [NSC703550] | -165.27% | – | –
48 | CC(C)(C)N(Cc1ccc2c(c1)OCO2)C(=O)/C=C\[S+]([O-])c1ccccc1 (centres unmarked) [NSC705330] | -49.87% | – | –

Reference: publication PMC6687188, “Novel lactate dehydrogenase inhibitors with in vivo efficacy against Cryptosporidium parvum” (PLoS Pathogens, 2019)
